Reference: the supplement of paper PMC10307832

Experiments:
Assay in all cases: relative viability (nuclei count vs DMSO), 5 days (fraction); higher = more cells survive
NCI-H1944 = test system: NCI-H1944
Method in brief: (§1)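 A single step with final 0.05% Triton X-100, 1% formaldehyde and 1 ug/ml Hoechst fixed the cells and stained nuclei 5 days after treatment. Lung cancer cell lines in 1536-well plates had been treated by pin tool the day after seeding with one drug alone or a fixed anchor-drug dose plus five library-drug doses (not always all listed) in √10 steps, and nuclei were counted on 4× images. Relative viability is the ratio of nuclei in treated wells to nuclei in vehicle wells, taken as the median of duplicate plates.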

HCC-366 = test system: HCC-366
Method in brief: as §1

COR-L23 = test system: COR-L23
Method in brief: as §1

NCI-H2023 = test system: NCI-H2023
Method in brief: as §1

NCI-H2405 = test system: NCI-H2405
Method in brief: as §1

NCI-H23 = test system: NCI-H23
Method in brief: as §1

NCI-H1993 = test system: NCI-H1993
Method in brief: as §1

NCI-H358 = test system: NCI-H358
Method in brief: as §1

LC-2-ad = test system: LC-2-ad
Method in brief: as §1

ABC-1 = test system: ABC-1
Method in brief: as §1

NCI-H838 = test system: NCI-H838
Method in brief: as §1

SK-LU-1 = test system: SK-LU-1
Method in brief: as §1

HOP-62 = test system: HOP-62
Method in brief: as §1

NCI-H1395 = test system: NCI-H1395
Method in brief: as §1

NCI-H2126 = test system: NCI-H2126
Method in brief: as §1

ChaGo-K-1 = test system: ChaGo-K-1
Method in brief: as §1

NCI-H1793 = test system: NCI-H1793
Method in brief: as §1

HCC-78 = test system: HCC-78
Method in brief: as §1

EMC-BAC-2 = test system: EMC-BAC-2
Method in brief: as §1

HARA = test system: HARA
Method in brief: as §1

HCC-15 = test system: HCC-15
Method in brief: as §1

NCI-H2228 = test system: NCI-H2228
Method in brief: as §1

## O=c1cc(N2CCOCC2)oc2c(-c3cccc4c3sc3ccccc34)cccc12 + COc1cc2c(Oc3ccc(NC(=O)C4(C(=O)Nc5ccc(F)cc5)CC4)cc3F)ccnc2cc1OCCCN1CCOCC1 [Foretinib] (partner 0.25 µM)
NCI-H1944; first compound 0.01 µM
  relative viability: 0.876
NCI-H1944; first compound 0.03162 µM
  relative viability: 0.928
NCI-H1944; first compound 0.1 µM
  relative viability: 0.829
NCI-H1944; first compound 0.3162 µM
  relative viability: 0.89
NCI-H1944; first compound 1 µM
  relative viability: 0.821
HCC-366; first compound 0.01 µM
  relative viability: 0.941
HCC-366; first compound 0.03162 µM
  relative viability: 0.918
HCC-366; first compound 0.1 µM
  relative viability: 0.99
HCC-366; first compound 0.3162 µM
  relative viability: 0.961
HCC-366; first compound 1 µM
  relative viability: 0.853
COR-L23; first compound 0.01 µM
  relative viability: 1.03
COR-L23; first compound 0.03162 µM
  relative viability: 0.996
COR-L23; first compound 0.1 µM
  relative viability: 0.954
COR-L23; first compound 0.3162 µM
  relative viability: 0.923
COR-L23; first compound 1 µM
  relative viability: 1.06
NCI-H2023; first compound 0.01 µM
  relative viability: 0.719
NCI-H2023; first compound 0.03162 µM
  relative viability: 0.803
NCI-H2023; first compound 0.1 µM
  relative viability: 0.763
NCI-H2023; first compound 0.3162 µM
  relative viability: 0.873
NCI-H2023; first compound 1 µM
  relative viability: 0.636
NCI-H2405; first compound 0.01 µM
  relative viability: 1.07
NCI-H2405; first compound 0.03162 µM
  relative viability: 1.07
NCI-H2405; first compound 0.1 µM
  relative viability: 1.12
NCI-H2405; first compound 0.3162 µM
  relative viability: 1.03
NCI-H2405; first compound 1 µM
  relative viability: 1.02
NCI-H23; first compound 0.01 µM
  relative viability: 1.02
NCI-H23; first compound 0.03162 µM
  relative viability: 1.01
NCI-H23; first compound 0.3162 µM
  relative viability: 1.06
NCI-H23; first compound 1 µM
  relative viability: 0.919
NCI-H1993; first compound 0.01 µM
  relative viability: 0.681
NCI-H1993; first compound 0.03162 µM
  relative viability: 0.845
NCI-H1993; first compound 0.1 µM
  relative viability: 0.878
NCI-H1993; first compound 0.3162 µM
  relative viability: 0.765
NCI-H1993; first compound 1 µM
  relative viability: 0.748
NCI-H358; first compound 0.01 µM
  relative viability: 0.647
NCI-H358; first compound 0.03162 µM
  relative viability: 0.7
NCI-H358; first compound 0.1 µM
  relative viability: 0.667
NCI-H358; first compound 0.3162 µM
  relative viability: 0.741
NCI-H358; first compound 1 µM
  relative viability: 0.774
LC-2-ad; first compound 0.01 µM
  relative viability: 0.89
LC-2-ad; first compound 0.03162 µM
  relative viability: 1.03
LC-2-ad; first compound 0.1 µM
  relative viability: 0.921
LC-2-ad; first compound 0.3162 µM
  relative viability: 0.877
LC-2-ad; first compound 1 µM
  relative viability: 0.795
ABC-1; first compound 0.01 µM
  relative viability: 1.03
ABC-1; first compound 0.03162 µM
  relative viability: 0.943
ABC-1; first compound 0.1 µM
  relative viability: 1.48
ABC-1; first compound 0.3162 µM
  relative viability: 1.11
ABC-1; first compound 1 µM
  relative viability: 1.02
NCI-H838; first compound 0.01 µM
  relative viability: 0.987
NCI-H838; first compound 0.03162 µM
  relative viability: 1.02
NCI-H838; first compound 0.1 µM
  relative viability: 1.12
NCI-H838; first compound 0.3162 µM
  relative viability: 0.958
NCI-H838; first compound 1 µM
  relative viability: 0.997
SK-LU-1; first compound 0.01 µM
  relative viability: 0.893
SK-LU-1; first compound 0.03162 µM
  relative viability: 0.918
SK-LU-1; first compound 0.1 µM
  relative viability: 0.789
SK-LU-1; first compound 0.3162 µM
  relative viability: 0.834
SK-LU-1; first compound 1 µM
  relative viability: 0.768
HOP-62; first compound 0.01 µM
  relative viability: 1.1
HOP-62; first compound 0.03162 µM
  relative viability: 1.17
HOP-62; first compound 0.1 µM
  relative viability: 1.11
HOP-62; first compound 0.3162 µM
  relative viability: 1.14
HOP-62; first compound 1 µM
  relative viability: 1.16
NCI-H1395; first compound 0.01 µM
  relative viability: 0.995
NCI-H1395; first compound 0.03162 µM
  relative viability: 0.915
NCI-H1395; first compound 0.1 µM
  relative viability: 0.973
NCI-H1395; first compound 0.3162 µM
  relative viability: 1.17
NCI-H1395; first compound 1 µM
  relative viability: 0.986
NCI-H2126; first compound 0.01 µM
  relative viability: 1.16
NCI-H2126; first compound 0.03162 µM
  relative viability: 1.22
NCI-H2126; first compound 0.1 µM
  relative viability: 1.29
NCI-H2126; first compound 0.3162 µM
  relative viability: 1.2
NCI-H2126; first compound 1 µM
  relative viability: 1.24
ChaGo-K-1; first compound 0.01 µM
  relative viability: 0.901
ChaGo-K-1; first compound 0.03162 µM
  relative viability: 1.01
ChaGo-K-1; first compound 0.1 µM
  relative viability: 0.948
ChaGo-K-1; first compound 0.3162 µM
  relative viability: 0.869
ChaGo-K-1; first compound 1 µM
  relative viability: 0.96
NCI-H1793; first compound 0.01 µM
  relative viability: 0.594
NCI-H1793; first compound 0.1 µM
  relative viability: 0.568
NCI-H1793; first compound 0.3162 µM
  relative viability: 0.685
NCI-H1793; first compound 1 µM
  relative viability: 0.486
HCC-78; first compound 0.01 µM
  relative viability: 0.492
HCC-78; first compound 0.03162 µM
  relative viability: 0.457
HCC-78; first compound 0.1 µM
  relative viability: 0.544
HCC-78; first compound 0.3162 µM
  relative viability: 0.581
HCC-78; first compound 1 µM
  relative viability: 0.533
EMC-BAC-2; first compound 0.01 µM
  relative viability: 1.01
EMC-BAC-2; first compound 0.03162 µM
  relative viability: 0.995
EMC-BAC-2; first compound 0.1 µM
  relative viability: 0.99
EMC-BAC-2; first compound 0.3162 µM
  relative viability: 0.983
EMC-BAC-2; first compound 1 µM
  relative viability: 0.978
HARA; first compound 0.01 µM
  relative viability: 0.768
HARA; first compound 0.03162 µM
  relative viability: 0.897
HARA; first compound 0.1 µM
  relative viability: 0.857
HARA; first compound 0.3162 µM
  relative viability: 0.864
HARA; first compound 1 µM
  relative viability: 0.903
HCC-15; first compound 0.01 µM
  relative viability: 1.01
HCC-15; first compound 0.03162 µM
  relative viability: 1.09
HCC-15; first compound 0.1 µM
  relative viability: 1.09
HCC-15; first compound 0.3162 µM
  relative viability: 0.989
HCC-15; first compound 1 µM
  relative viability: 0.971
NCI-H2228; first compound 0.01 µM
  relative viability: 0.864
NCI-H2228; first compound 0.03162 µM
  relative viability: 1.08
NCI-H2228; first compound 0.1 µM
  relative viability: 0.981
NCI-H2228; first compound 0.3162 µM
  relative viability: 0.89
NCI-H2228; first compound 1 µM
  relative viability: 0.9
